From PubChem BioAssay AID248 (DTP/NCI, 2004)
Toxic doses and inconclusive results are not listed. No stated cut-off is given here; in the data, active means T/C of 150% or more; inactive means T/C below 125%.

Tested on: L1210 leukemia ip in BDF1 mice, survival T/C
Test: NCI In Vivo Anticancer Drug Screen. Data for tumor model L1210 Leukemia (intraperitoneal) in B6D2F1 (BDF1) mice
Settings: endpoint: mean survival time, higher = longer survival
Summary of the method: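 Antitumor effect is assessed in tumor-bearing animals. Survival in the compound arm is compared with a vehicle-dosed control arm and expressed as their quotient.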

[1] = dose: 100.0 mg/kg/injection, schedule: Q01DX001 (ip), vehicle: saline
[2] = dose: 200.0 mg/kg/injection, schedule: Q01DX001 (ip), vehicle: saline
[3] = dose: 400.0 mg/kg/injection, schedule: Q01DX001 (ip), vehicle: saline
[4] = dose: 100.0 mg/kg/injection, schedule: Q04DX002 (ip), vehicle: Klucel (hydroxypropylcellulose) (HPC)
[5] = dose: 200.0 mg/kg/injection, schedule: Q04DX002 (ip), vehicle: Klucel (hydroxypropylcellulose) (HPC)
[6] = dose: 400.0 mg/kg/injection, schedule: Q04DX002 (ip), vehicle: Klucel (hydroxypropylcellulose) (HPC)
[7] = dose: 50.0 mg/kg/injection, schedule: Q01DX001 (ip), vehicle: Klucel (hydroxypropylcellulose) (HPC)
[8] = dose: 100.0 mg/kg/injection, schedule: Q01DX001 (ip), vehicle: Klucel (hydroxypropylcellulose) (HPC)
[9] = dose: 100.0 mg/kg/injection, schedule: Q01DX009 (ip), vehicle: Klucel (hydroxypropylcellulose) (HPC)
[10] = dose: 100.0 mg/kg/injection, schedule: Q04DX003 (ip), vehicle: Klucel (hydroxypropylcellulose) (HPC)
[11] = dose: 200.0 mg/kg/injection, schedule: Q01DX009 (ip), vehicle: Klucel (hydroxypropylcellulose) (HPC)
[12] = dose: 200.0 mg/kg/injection, schedule: Q04DX003 (ip), vehicle: Klucel (hydroxypropylcellulose) (HPC)
[13] = dose: 400.0 mg/kg/injection, schedule: Q01DX009 (ip), vehicle: Klucel (hydroxypropylcellulose) (HPC)
[14] = dose: 400.0 mg/kg/injection, schedule: Q04DX003 (ip), vehicle: Klucel (hydroxypropylcellulose) (HPC)
[15] = dose: 100.0 mg/kg/injection, schedule: Q04DX003 (ip), vehicle: saline with Tween-80
[16] = dose: 400.0 mg/kg/injection, schedule: Q04DX003 (ip), vehicle: saline with Tween-80

Measured: T/C

CN1CC2C(N)N=C(N)NC2C1(C)C (stereo unspecified)
inactive: dose: 100.0 mg/kg/injection, schedule: Q04DX002 (ip), vehicle: saline 101 % of control | dose: 200.0 mg/kg/injection, schedule: Q04DX002 (ip), vehicle: saline 93 % of control | dose: 400.0 mg/kg/injection, schedule: Q04DX002 (ip), vehicle: saline 90 % of control

O=c1[nH]nc(N2CCOCC2)c(=O)[nH]1
inactive: [1] 104 % of control | [2] 104 % of control | [3] 96 % of control

O=C(c1ccc(C(=O)N2CC2)cc1)N1CC1
inactive: dose: 5.0 mg/kg/injection, schedule: Q04DX003 (ip), vehicle: carboxymethylcellulose (CMC) 106 % of control | dose: 10.0 mg/kg/injection, schedule: Q04DX003 (ip), vehicle: carboxymethylcellulose (CMC) 97 % of control | dose: 20.0 mg/kg/injection, schedule: Q01DX001 (ip), vehicle: carboxymethylcellulose (CMC) 103 % of control | dose: 20.0 mg/kg/injection, schedule: Q04DX003 (ip), vehicle: carboxymethylcellulose (CMC) 94 % of control

CC(=O)Nc1ccc(C=O)s1
inactive: dose: 100.0 mg/kg/injection, schedule: Q01DX001 (ip), vehicle: carboxymethylcellulose (CMC) 97 % of control | dose: 200.0 mg/kg/injection, schedule: Q01DX001 (ip), vehicle: carboxymethylcellulose (CMC) 94 % of control | dose: 400.0 mg/kg/injection, schedule: Q01DX001 (ip), vehicle: carboxymethylcellulose (CMC) 103 % of control

CNC(=O)C1C(c2ccccc2)C1c1ccc(C)cc1 (stereo unspecified)
inactive: [4] 88 % of control | [5] 92 % of control | [6] 103 % of control

C=C(C)C1CNC(C(=O)O)C1CC(=O)O (stereo unspecified)
inactive: dose: 6.25 mg/kg/injection, schedule: Q01DX009 (ip), vehicle: saline sonified 102 % of control | dose: 12.5 mg/kg/injection, schedule: Q01DX009 (ip), vehicle: saline sonified 86 % of control

CCC(=O)n1c(=O)n(C2CCN(CCCS(=O)(=O)c3ccccc3)CC2)c2ccccc21
inactive: [7] 95 % of control | [8] 95 % of control | dose: 200.0 mg/kg/injection, schedule: Q01DX001 (ip), vehicle: Klucel (hydroxypropylcellulose) (HPC) 100 % of control

CCCCOP(=O)(NNP(=O)(OCCCC)OCCCC)OCCCC
inactive: dose: 100.0 mg/kg/injection, schedule: Q04DX002 (ip), vehicle: saline with Tween-80 108 % of control | dose: 200.0 mg/kg/injection, schedule: Q04DX002 (ip), vehicle: saline with Tween-80 116 % of control | dose: 400.0 mg/kg/injection, schedule: Q04DX002 (ip), vehicle: saline with Tween-80 105 % of control

CC1CCC(C)(C)CC1(C)c1cc(CN(C)C)c(O)c(CN(C)C)c1 (stereo unspecified)
inactive: dose: 12.5 mg/kg/injection, schedule: Q04DX003 (ip), vehicle: acetone 93 % of control | dose: 25.0 mg/kg/injection, schedule: Q04DX003 (ip), vehicle: acetone 98 % of control | dose: 50.0 mg/kg/injection, schedule: Q04DX003 (ip), vehicle: acetone 90 % of control

Cc1ccc(S(=O)(=O)N(CCCc2c(C)nc(N)nc2Nc2ccccc2)c2ccccc2)cc1
inactive: dose: 25.0 mg/kg/injection, schedule: Q01DX001 (ip), vehicle: saline with Tween-80 108 % of control | dose: 50.0 mg/kg/injection, schedule: Q01DX001 (ip), vehicle: saline with Tween-80 92 % of control | dose: 100.0 mg/kg/injection, schedule: Q01DX001 (ip), vehicle: saline with Tween-80 93 % of control

CCNCC(=O)Nc1ccccc1C(=O)OCC
inactive: dose: 222.0 mg/kg/injection, schedule: Q01DX Z (ip), vehicle: saline 113 % of control | dose: 333.0 mg/kg/injection, schedule: Q01DX Z (ip), vehicle: saline 102 % of control

CCCCCCC(=O)CCCC(C)CCCC(C)C (stereo unspecified)
inactive: [9] 91 % of control | [10] 93 % of control | [11] 97 % of control | [12] 95 % of control | [13] 98 % of control | [14] 88 % of control

CCOC(=O)C(=CNc1cccc(N)n1)C(=O)OCC
inactive: [10] 95 % of control | [12] 97 % of control | [14] 92 % of control

COc1ccc(-c2c(C(=O)O)cccc2[N+](=O)[O-])c(OC)c1
inactive: dose: 100.0 mg/kg/injection, schedule: Q01DX003 (ip), vehicle: Klucel (hydroxypropylcellulose) (HPC) 98 % of control | dose: 200.0 mg/kg/injection, schedule: Q01DX003 (ip), vehicle: Klucel (hydroxypropylcellulose) (HPC) 91 % of control | dose: 400.0 mg/kg/injection, schedule: Q01DX003 (ip), vehicle: Klucel (hydroxypropylcellulose) (HPC) 86 % of control

Cc1ccc(Cc2cc(=O)[nH]c(=S)[nH]2)cc1
inactive: [10] 98 % of control | [12] 93 % of control | [14] 92 % of control

CCC1(NS(=O)(=O)c2ccc(N)cc2)C(=O)N(C)C(=O)N(C)C1=O
inactive: [1] 94 % of control | [2] 94 % of control | [3] 91 % of control

COc1ccc(CN2CCCN(Cc3ccc(OC)cc3OC)C2c2ccccc2F)c(OC)c1
inactive: dose: 50.0 mg/kg/injection, schedule: Q01DX001 (ip), vehicle: saline 96 % of control | [1] 96 % of control | [2] 89 % of control | [3] 94 % of control

O=C(c1ccccc1)C(Cc1ccccc1)C(Cc1ccccc1)c1ccccc1 (stereo unspecified)
inactive: dose: 100.0 mg/kg/injection, schedule: Q04DX003 (ip), vehicle: acetone 93 % of control | dose: 200.0 mg/kg/injection, schedule: Q04DX003 (ip), vehicle: acetone 98 % of control | dose: 400.0 mg/kg/injection, schedule: Q04DX003 (ip), vehicle: acetone 92 % of control

O=C(O)C1CC=CCC1c1c2ccc(=O)cc-2oc2cc(O)ccc12 (stereo unspecified)
inactive: dose: 100.0 mg/kg/injection, schedule: Q04DX003 (ip), vehicle: saline 98 % of control | dose: 200.0 mg/kg/injection, schedule: Q04DX003 (ip), vehicle: saline 94 % of control | dose: 400.0 mg/kg/injection, schedule: Q04DX003 (ip), vehicle: saline 91 % of control

O=C(C[n+]1ccc(/C=N\O)cc1)c1ccc(-c2ccc(C(=O)C[n+]3ccc(/C=N/O)cc3)cc2)cc1
inactive: [4] 103 % of control | [5] 100 % of control | [6] 92 % of control

CCOC(=O)CC(C)(O)C1CC1 (stereo unspecified)
inactive: [15] 98 % of control | dose: 200.0 mg/kg/injection, schedule: Q04DX003 (ip), vehicle: saline with Tween-80 96 % of control | [16] 98 % of control

CC(C(N)=O)N1C(=O)C2C3C=CC(C3)C2C1=O (stereo unspecified)
inactive: [15] 109 % of control | [16] 97 % of control

CC(C)(C)c1cc(C(C)(C)[N+](C)(C)C)cc(C(C)(C)C)n1
inactive: [7] 102 % of control | [8] 90 % of control

Cc1cc(Cl)c(OC(=O)Nc2ccccc2C(F)(F)F)cc1C
inactive: [9] 107 % of control | [11] 107 % of control | [13] 98 % of control

Brc1ccc2c(c1)-c1ccccc1C1=NCCN12
inactive: dose: 5.0 mg/kg/injection, schedule: Q01DX009 (ip), vehicle: Klucel (hydroxypropylcellulose) (HPC) 100 % of control | dose: 10.0 mg/kg/injection, schedule: Q01DX009 (ip), vehicle: Klucel (hydroxypropylcellulose) (HPC) 101 % of control | dose: 20.0 mg/kg/injection, schedule: Q04DX003 (ip), vehicle: Klucel (hydroxypropylcellulose) (HPC) 86 % of control

CCCCCC(Oc1ccc(Cl)cc1C)C(=O)OCC (stereo unspecified)
inactive: [4] 90 % of control | [5] 87 % of control | [6] 107 % of control

CON1C(=O)c2ccccc2S1=O (stereo unspecified)
inactive: [4] 96 % of control | [5] 92 % of control
